Test results taken from US7396655B2, “Method for enhancing activity of luciferase with fluorescence activity” (Chisso Corporation, priority 2005, dated 2008).
Structures can show the parent of a compound that is named as a salt. Where two headings read alike, the source gives them in different places.

What was measured:
[1] = target: T1, BFP-aq (Aequorea victoria, UniProt P07164); assay: biochemical; format: biochemical; design: The recombinant apoaequorins encoded by piP-HE is composed of 191 amino acids, whose N-terminus starts from Ala-Asn-Ser-; made in house; host or cells: E. coli strain WA802; settings: for Luminescence activity (%) Imax: 50 mM Tris-HCl pH 8.0, 25° C., coelenterazine 1 μg, no compound = 100%
Description: (§1) Solutions of 50 mM Tris-HCl (pH 8.0), each containing various commercial organic compounds shown in Table 3, were prepared and pre-warmed at 25° C. The substrate coelenterazine (1 μg) was added to the solutions (200 μl) containing each of these compounds.

[2] = cited from earlier work
[3] = target: T2, BFP-aq, luciferase with fluorescence activity derived from aequorin (recombinant apoaequorin, SEQ ID NO: 1 with N-terminal Val replaced by Ala-Asn-Ser; complex with coelenteramide and calcium ions) (Aequorea victoria, UniProt P02592); assay: Enhancing effect of organic compounds on BFP-aq luminescence with coelenterazine as substrate (Table 4); format: biochemical; settings: pH 8.0, 25° C., no addition = 100%; for activity at 30000 µM: 30 mM compound; for activity at 150000 µM: 150 mM compound; for activity at 300000 µM: 300 mM compound; for activity at 3 M: 3000 mM compound
T2 construct: The recombinant apoaequorins encoded by piP-HE is composed of 191 amino acids, whose N-terminus starts from Ala-Asn-Ser-; made in house; host or cells: E. coli strain WA802 (expression vector piP-HE)
T2 sequence (P02592 with tags, fused parts or gaps): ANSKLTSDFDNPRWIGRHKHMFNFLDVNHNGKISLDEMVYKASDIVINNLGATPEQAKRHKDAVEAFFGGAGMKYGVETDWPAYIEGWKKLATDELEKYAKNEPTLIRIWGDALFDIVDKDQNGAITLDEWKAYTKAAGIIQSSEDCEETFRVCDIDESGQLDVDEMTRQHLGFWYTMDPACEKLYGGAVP
From the text: To obtain recombinant apoaequorins, the apoaequorin gene expression vector piP-HE (Japanese Laid-Open Application No. 1989-132397) constructed from pAQ440 harboring the apoaequorin gene (Japanese Laid-Open Application No. 1986-135586) was used. The recombinant apoaequorins encoded by piP-HE is composed of 191 amino acids, whose N-terminus starts from Ala-Asn-Ser-(Val of the N-terminus of SEQ ID NO: 1 in the sequence listing was replaced by Ala-Asn-Ser-).
In a VIVASPIN 2 column, the concentrated aequorin solution was overlaid with 0.9 ml of 50 mM Tris-HCl (pH 7.6) containing 5 mM calcium chloride (Wako Pure Chemicals Industries, Ltd.) and 2 mM dithiothreitol (Wako Pure Chemicals Industries, Ltd.) to trigger continuous light emission and the column was allowed to stand at […] for 24 hours or longer. […] Further, 2 ml of 50 mM Tris-HCI (pH 7.6) containing 5 mM calcium chloride (Wako Pure Chemicals Industries, Ltd.) and 2 mM dithiothreitol (Wako Pure Chemicals Industries, Ltd.) was loaded onto the VIVASPIN 2 column and the column was centrifuged under the identical conditions and then washed.
as §1

[4] = target: T1, BFP-aq; format: biochemical; design: The recombinant apoaequorins encoded by piP-HE is composed of 191 amino acids, whose N-terminus starts from Ala-Asn-Ser-; made in house; host or cells: E. coli strain WA802; settings: for Relative luminescence activity Imax (%) / Relative luminescence activity Initial velocity (%): substrate 1 μg, BFP-aq 1.2 μg, pH 8.0, coelenterazine without imidazole = 100%
Description: 200 μl of this solution was placed in five vessels, to each of which 1 μg of the substrate coelenterazine (CTZ) and its four analogs: h-CTZ, cp-CTZ, hcp-CTZ, f-CTZ were added.

[5] = substrate: Oc1ccc(Cc2nc3c(Cc4ccccc4)nc(-c4ccc(O)cc4)cn3c2O)cc1; assay: Light-emitting reaction rate of BFP-aq, Lineweaver-Burk plot (Table 6); format: biochemical, Aequorea victoria; settings: other: coelenterazine, pH 8.0, 25° C.
[6] = pH 8, read-out: Luminescence activity (%) Imax
[7] = pH 8, read-out: Luminescence activity (%) Initial velocity
[8] = read-out: Luminescence activity, Imax
[9] = read-out: Luminescence activity, initial velocity

Cc1ncc[nH]1 [2-Methylimidazole]
activity at 30000 µM [1, 6]: 63%
activity at 150000 µM [1, 6]: 16%
activity at 30000 µM [1, 7]: 83%
activity at 150000 µM [1, 7]: 21%

Cc1c[nH]cn1 [4-Methylimidazole]
pKa [2]: 7.5
activity at 30000 µM [1, 6]: 88%
activity at 150000 µM [1, 6]: 78%
activity at 30000 µM [1, 7]: 92%
activity at 150000 µM [1, 7]: 95%

NC(=O)c1nc[nH]c1N [5-Amino-imidazole-4-carboxamide/hydrochloride]
activity at 30000 µM [3, 8]: 64%
activity at 30000 µM [3, 9]: 48%
activity at 150000 µM [3, 8]: 0%
activity at 150000 µM [3, 9]: 2%
Luminescence activity (%) Imax ([1]; compound 30 mM): 64%
Luminescence activity (%) Imax ([1]; compound 150 mM): 0%

CC(N)=O [Acetamide/hydrochloride]
activity at 30000 µM [3, 8]: 73%
activity at 30000 µM [3, 9]: 132%
activity at 150000 µM [3, 8]: 31%
activity at 150000 µM [3, 9]: 44%
activity at 300000 µM [3, 8]: 55%
activity at 300000 µM [3, 9]: 95%
Luminescence activity (%) Imax ([1]; compound 30 mM): 73%
Luminescence activity (%) Imax ([1]; compound 150 mM): 31%
Luminescence activity (%) Imax ([1]; compound 300 mM): 55%

N=C(N)N [Guanidine/hydrochloride]
activity at 30000 µM [3, 8]: 92%
activity at 30000 µM [3, 9]: 130%
activity at 150000 µM [3, 8]: 109%
activity at 150000 µM [3, 9]: 226%
activity at 300000 µM [3, 8]: 65%
activity at 300000 µM [3, 9]: 118%
Luminescence activity (%) Imax ([1]; compound 30 mM): 92%
Luminescence activity (%) Imax ([1]; compound 150 mM): 109%
Luminescence activity (%) Imax ([1]; compound 300 mM): 65%

NCCc1c[nH]cn1 [Histamine]
pKa [2]: 8.0
activity at 30000 µM [1, 6]: 69%
activity at 150000 µM [1, 6]: 22%
activity at 30000 µM [1, 7]: 92%
activity at 150000 µM [1, 7]: 26%

C[C@H](N)C(=O)O [L-Alanine]
activity at 30000 µM [1, 6]: 88%
activity at 150000 µM [1, 6]: 77%
activity at 30000 µM [1, 7]: 82%
activity at 150000 µM [1, 7]: 59%

N=C(N)NCCC[C@H](N)C(=O)O [L-Arginine]
activity at 30000 µM [1, 6]: 62%
activity at 150000 µM [1, 6]: 1%
activity at 30000 µM [1, 7]: 73%
activity at 150000 µM [1, 7]: 4%

NCC(=O)O [L-Glycine]
activity at 30000 µM [3, 8]: 87%
activity at 30000 µM [3, 9]: 104%
activity at 150000 µM [3, 8]: 83%
activity at 150000 µM [3, 9]: 78%
pKa [2]: 6.0
Luminescence activity (%) Imax ([1]; compound 30 mM): 87%
Luminescence activity (%) Imax ([1]; compound 150 mM): 83%

N[C@@H](Cc1c[nH]cn1)C(=O)O [L-Histidine]
activity at 30000 µM [1, 6]: 37%
activity at 150000 µM [1, 6]: 5%
activity at 30000 µM [1, 7]: 82%
activity at 150000 µM [1, 7]: 27%

NCCCC[C@H](N)C(=O)O [L-Lysine]
activity at 30000 µM [1, 6]: 60%
activity at 150000 µM [1, 6]: 1%
activity at 30000 µM [1, 7]: 66%
activity at 150000 µM [1, 7]: 10%

CCN(CC)CC [Triethylamine]
activity at 30000 µM [1, 6]: 68%
activity at 150000 µM [1, 6]: 8%
activity at 30000 µM [1, 7]: 68%
activity at 150000 µM [1, 7]: 12%

NC(N)=O [Urea]
activity at 30000 µM [3, 8]: 84%
activity at 30000 µM [3, 9]: 113%
activity at 150000 µM [3, 8]: 89%
activity at 150000 µM [3, 9]: 104%
activity at 3 M [3, 8]: 29%
activity at 3 M [3, 9]: 57%
Luminescence activity (%) Imax [1]: 29%
Luminescence activity (%) Imax ([1]; compound 30 mM): 84%
Luminescence activity (%) Imax ([1]; compound 150 mM): 89%

O=C(O)/C=C/c1c[nH]cn1 [Urocanic acid]
pKa [2]: 5.8
activity at 30000 µM [1, 6]: 44%
activity at 30000 µM [1, 7]: 31%

O=c1c(Cc2ccc(O)cc2)nc2c(CC3CCCC3)[nH]c(-c3ccc(O)cc3)cn1-2 [cp-Coelenterazine]
Suitability as substrate in the BFP-aq light-emitting reaction system [4]: served as effective substrates
Relative luminescence activity Imax (%) ([4]; with 150 mM imidazole): 138%
Relative luminescence activity Initial velocity (%) ([4]; with 150 mM imidazole): 535%
Relative luminescence activity Imax (%) ([4]; without imidazole): 54%
Relative luminescence activity Initial velocity (%) ([4]; without imidazole): 152%

O=c1c(Cc2ccc(F)cc2)nc2c(Cc3ccccc3)[nH]c(-c3ccc(O)cc3)cn1-2 [f-Coelenterazine]
Suitability as substrate in the BFP-aq light-emitting reaction system [4]: served as effective substrates

O=c1c(Cc2ccccc2)nc2c(Cc3ccccc3)[nH]c(-c3ccc(O)cc3)cn1-2 [h-Coelenterazine]
Suitability as substrate in the BFP-aq light-emitting reaction system [4]: served as effective substrates

O=c1c(Cc2ccccc2)nc2c(CC3CCCC3)[nH]c(-c3ccc(O)cc3)cn1-2 [hcp-Coelenterazine]
Suitability as substrate in the BFP-aq light-emitting reaction system [4]: served as effective substrates
Imax relative to coelenterazine without imidazole ([4]; with 150 mM imidazole): 4 fold
Velocity of light-emitting reaction relative to coelenterazine without imidazole ([4]; with 150 mM imidazole): 25 fold

B1: BFP-aq, luciferase with fluorescence activity derived from aequorin (recombinant apoaequorin, SEQ ID NO: 1 with N-terminal Val replaced by Ala-Asn-Ser; complex … (protein)
chain: MTSKQYSVKLTSDFDNPRWIGRHKHMFNFLDVNHNGKISLDEMVYKASDIVINNLGATPEQAKRHKDAVEAFFGGAGMKYGVETDWPAYIEGWKKLATDELEKYAKNEPTLIRIWGDALFDIVDKDQNGAITLDEWKAYTKAAGIIQSSEDCEETFRVCDIDESGQLDVDEMTRQHLGFWYTMDPACEKLYGGAVP
notes: The recombinant apoaequorins encoded by piP-HE is composed of 191 amino acids, whose N-terminus starts from Ala-Asn-Ser-; made in house; host or cells: E. coli strain WA802 (expression vector piP-HE)
Km ([5]; with 150 mM imidazole): 9.2 μM μM
Km ([5]; without imidazole): 9.6 μM μM
